Experimental data reported in patent publication US20230138984A1, “HA-PACLITAXEL CONJUGATE FOR TREATMENT OF MESOTHELIOMA” (FIDIA FARMACEUTICI S.p.A., priority 2020, published 2023).
Values after ≈ are worked out from the molar mass of the structure shown. Where two headings read alike, the source gives them in different places.

Columns and labels:
[1] = system: H28 cells; test: MTT cytotoxicity assay on mesothelioma cell line H28; conditions: Homo sapiens, NCI-H28, 48 h, read-out: Normalized IC50
[2] = system: H2052 cells; test: MTT cytotoxicity assay on mesothelioma cell line H2052; conditions: Homo sapiens, NCI-H2052, 48 h, read-out: Normalized IC50
[3] = system: human mesothelioma H2052 cells; conditions: for average luminescence of tumor zone: weekly, order of magnitude, compared with untreated 1x10^12 on the 100° day
Description: The cell lines of human mesothelioma H2052 were transduced with a lentiviral vector (method by which the genes can be inserted into cells using the lentivirus) containing a bidirectional promoter allowing the high and coordinated expression of two reporter genes for the synthesis of luciferase and eGFP (enhanced Green Fluorescent Protein), as described in Amendola et al., Nat Biotechnol 2005, 23:108-16: luciferase is an enzyme that catalyzes the oxidation of luciferin which oxidizing emits energy ([…]) in the form of light radiation and such reaction has an ultra-high sensitivity; the eGFP derives from the jellyfish Aequorea victoria, and it is capable of emitting bright green light when exposed to certain wavelengths; both such proteins are used below as a “marker system” for human mesothelioma cells H2052 transduced as above, in order to identify the tumor mass that is formed in animals injected with such cells and to determine its dimensions and the growth over time through suitable bioluminescence sensor.
Cells were incubated for 6 hours in a mixture of complete medium (RPMI + 10% FBS, 1% HEPES, L-glutamine and penicillin/streptomycin) containing the above-mentioned vector and protamine sulphate. At the end of 6 hours of incubation, supernatants were re-integrated with complete medium. After 5 days, the effect of the transduction was evaluated through flow cytometry.
Cells were then expanded and sub-divided in order to isolate the population with the higher expression of reporter genes.
All treated animals were monitored through detection of bioluminescence emitted by their tumor zone treated with HA-paclitaxel conjugate, in order to assess over time, the dimension (and therefore the growth) of the tumor with reference to animals untreated with any chemotherapeutic agent and to those treated with non-conjugated paclitaxel.

[4] = system: H2452 cells; test: MTT cytotoxicity assay on mesothelioma cell line H2452; conditions: Homo sapiens, NCI-H2452, 48 h, read-out: Normalized IC50

With `CC(=O)O[C@H]1C(=O)[C@@]2(C)[C@H]([C@H](OC(=O)c3ccccc3)[C@]3(O)C[C@H](OC(=O)[C@H](O)[C@@H](NC(=O)c4ccccc4)c4ccccc4)C(C)=C1C3(C)C)[C@]1(OC(C)=O)CO[C@@H]1C[C@@H]2O` [paclitaxel] the IC50 [1] was 0.787 µg/mL (≈ 0.922 µM), the IC50 [2] was 0.225 µg/mL (≈ 0.263 µM) and the “average luminescence of tumor zone” value ([3]; 2° sample: 10 mg/Kg iv for 3 treatments then ip) was ~1x10^11 Ph/sec. The “average luminescence of tumor zone” value ([3]; 3° sample: 10 mg/Kg ip) was ~1x10^11 Ph/sec, the “bioluminescence emitted by treated tumor zone” value ([3]; non-conjugated paclitaxel 10 mg/Kg, after 139 days of observation (FIG. 2)) was “around 12x10^11 Ph/sec” and the IC50 [4] was 0.8 µg/mL (≈ 0.937 µM).
